This is an account of results in publication PMC9181982, “Biphenyl Ether Analogs Containing Pomalidomide as Small-Molecule Inhibitors of the Programmed Cell Death-1/Programmed Cell Death-Ligand 1 Interaction” (Molecules, 2022).

The subject of test [1] is PD-1/PD-L1 blockade, Jurkat effector cells / CHO/TCRAct/PD-L1 cells. As to the kind of experiment: Immune checkpoint blockade (ICB) assay (Promega): Jurkat ECs co-cultured with CHO/TCRAct/PD-L1 cells, NFAT luciferase readout. In kind it is cell-based, human. To be noted: for Promega Assay (active / not active): cell-based PD-1/PD-L1 blockade bioassay. The method, then:
In order to explore the bioactivity of the synthesized compounds, a well-recognized immune checkpoint blockade (ICB) assay was performed. In the assay, artificial T cells, the Jurkat effector cells (Jurkat ECs), i.e., the Jurkat T cells overexpressing PD-1 and luciferase-coding gene under the control of the TCR-inducible NFAT response element, are contacted with artificial antigen-presenting CHO/TCRAct/PD-L1 cells, as illustrated in [31]. The latter is the CHO cells equipped with the TCR activator molecule, which delivers activation of Jurkat ECs, and also the PD-L1 protein, which provides a negative signal towards the activation of Jurkat ECs. Upon the blockade of the PD-1/PD-L1 interaction, activation of Jurkat ECs is increased, as we have shown before for several classes of therapeutic antibodies and small molecules.
The human PD-L1-expressing CHO-K1 cells overexpressing TCR activator (CHO/TCRAct/PD-L1) cells and Jurkat ECs T cells overexpressing PD-1 and carrying a luciferase reporter gene under the control of the Nuclear Factor of Activated T cells Response Element (NFAT-RE) were obtained from Promega and cultured in an RPMI-1640 medium (Biowest, Nuaillé, France) supplemented with 10% fetal bovine serum (FBS, Biowest, Nuaillé, France) and […] L-glutamine (Biowest, Nuaillé, France). G418 (250 µg/mL, InvivoGen, San Diego, CA, USA) and Hygromycin B Gold (50 µg/mL, InvivoGen, San Diego, CA, USA) were also added to the culture medium as selection antibiotics. CAKI 2, LNCap, PC-3, and MDA-MB-231 cells were purchased from the European Collection of Authenticated Cell Cultures (ECACC) and cultured according to the provided protocol.
For the analysis of biological activity of the analyzed compounds, an immune checkpoint blockade (ICB) assay was performed. For this, the culture of Jurkat effector cells (Jurkat-ECs) and […] was carried out. The assay was performed according to the protocol described in our previous works. All the experiments were performed three times as independent experiments.
Figure 2 Bioactivity of the indicated compounds. (A,B) The activity was monitored with a cell-based immune checkpoint blockade (ICB) assay. Jurkat ECs were contacted with pre-seeded CHO/TCRAct/PD-L1 cells in the presence of the indicated concentrations of the compounds (A) or durvalumab (B) as a positive control. The cells were co-cultured for 6 h and the luminescence signal was measured following the addition of the Bio-Glo substrate. The graphs show fold induction calculated versus either DMSO-treated (for small molecules) or untreated (for durvalumab) control (ctrl) cells. The results are mean ± SD from three independent experiments. […] (C) Analysis of the expression of PD-L1 in four human cancer cell lines compared to PD-L1-overexpressing CHO/TCRAct/PD-L1 cells. (D) Analysis of the expression of PD-L1 in MDA-MB-231 cells treated with either 4 or 5 compounds for 6 or 24 h.

The next test has as its target T1, PD-1/PD-L1 complex (Homo sapiens, UniProt Q9NZQ7).
T1 construct: purchased Cis-Bio
As to the kind of experiment: HTRF (homogeneous time-resolved fluorescence) PD-1/PD-L1 binding assay (Cis-Bio). As to conditions: for HTRF: Percentage of the Dissociated PD-1/PD-L1 Complex, 0.5 µM Ligand Conc. / HTRF: Percentage of the Dissociated PD-1/PD-L1 Complex, 5 µM Ligand Conc. / inhibition at 0.5 µM / inhibition at 5 µM: 5 nM hPD-L1, 50 nM hPD-1; for HTRF: Percentage of the Dissociated PD-1/PD-L1 Complex, 0.5 µM Ligand Conc. / inhibition at 0.5 µM: 0.5 µM ligand; for inhibition at 0.5 µM: read-out: HTRF: Percentage of the Dissociated PD-1/PD-L1 Complex, 0.5 µM Ligand Conc.; for HTRF: Percentage of the Dissociated PD-1/PD-L1 Complex, 5 µM Ligand Conc. / inhibition at 5 µM: 5 µM ligand; for inhibition at 5 µM: read-out: HTRF: Percentage of the Dissociated PD-1/PD-L1 Complex, 5 µM Ligand Conc. As to the method:
To validate the activity toward PD-L1 of our compounds, we carried out an HTRF (homogeneous time-resolved fluorescence) experiment at two concentrations of the ligand (5 µM and 0.5 µM) (Table 1).
HTRF was carried out using a certified Cis-Bio assay according to the manufacturer’s guidelines. The experiments were carried out at 5 nM of h-L1 and 50 nM of hPD-1 in the final formulation at the 20 µL final volume in the well. To determine the half maximal inhibitory concentrations (IC50) of the tested compounds, the measurements were carried out on two individual dilution series unless stated otherwise. After mixing all the components according to the Cis-Bio protocol, the plate was left for 2 h incubation at room temperature followed by the TR-FRET measurement on a Tecan Spark 20M. […] The collected data was background-subtracted from the negative control, normalized on the positive control, averaged, and fitted with the normalized Hill’s equation to determine the IC50 value using Mathematica 12 (Princeton, NJ, USA).
In general terms: Time-resolved FRET reads energy transfer from a long-lived donor to a nearby acceptor.

The next test deals with T2, PD-L1 protein (Homo sapiens, UniProt Q9NZQ7).
T2 construct: PD-L1 gene (amino acids 18–239); made in house; host or cells: E. coli BL21
Nature of the test: 1H NMR binding analysis, PD-L1 protein titrated with ligand. To be noted: 1H NMR titration; compound 6 at protein–ligand ratio 1:10. As to the method:
Apart from the HTRF assay, we performed the NMR [33, 34] binding analysis by recording the ^1H spectrum of the PD-L1 protein titrated with compound 4 (Figure 1).
The E. coli strain BL21 was transformed with a pET-21b plasmid carrying the PD-L1 gene (amino acids 18–239). The bacteria were cultured in LB at 37 °C until OD600nm of 0, 6 when the recombinant protein production was induced with 1 mM IPTG. The protein production continued overnight. The inclusion bodies were collected by centrifugation, washed twice with 50 mM Tris HCl, pH 8.0, containing 200 mM NaCl, 10 mM EDTA, 10 mM 2-mercaptoethanol, and 0.5% Triton X-100, followed by a single wash with the same buffer but with no Triton X-100. The washed inclusion bodies were resuspended overnight in 50 mM Tris HCl, pH 8.0, 6 M GuHCl, 200 mM NaCl, and 10 mM 2-mercaptoethanol and clarified with centrifugation. Refolding of PD-L1 was performed by dropwise dilution into 0.1 M Tris HCl, pH 8.0, containing 1 M L-arginine hydrochloride, 0.25 mM oxidized glutathione, and 0.25 mM reduced glutathione. The refolded protein was dialyzed three times against 10 mM Tris HCl, pH 8.0, containing 20 mM NaCl and purified by size exclusion chromatography using Superdex 75 and a dialysis buffer. The quality of the refolded protein was evaluated by SDS-PAGE and NMR.
NMR spectra were recorded in PBS, pH 7.4, containing 10% (v/v) of D2O added to the samples to provide the lock signal. Water suppression was carried out using the WATERGATE sequence. All the spectra were recorded at 300 K using a Bruker Avance 600 MHz spectrometer with the Cryo-Platform. The NMR spectrum was recorded at three different ligand/protein ratios from 0 to 10. The samples were prepared by adding small amounts of a 50 mM ligand stock solution in DMSO to the protein solution (0.20 mL) of the PD-L1 fragment at a concentration of 0.14 mM. The acquisition parameters for each spectrum were as follows: size of FID32768, number of scans: 32. The spectra were visualized using TopSpin 4.0.2. (Bruker, Billerica, MA, USA)

As usually defined, the IC50 is the point on the concentration scale where inhibition reaches its midpoint. A higher IC50 goes with weaker potency in that assay.

T1 sequence (Q9NZQ7 19-238 limits assumed, one chain of several): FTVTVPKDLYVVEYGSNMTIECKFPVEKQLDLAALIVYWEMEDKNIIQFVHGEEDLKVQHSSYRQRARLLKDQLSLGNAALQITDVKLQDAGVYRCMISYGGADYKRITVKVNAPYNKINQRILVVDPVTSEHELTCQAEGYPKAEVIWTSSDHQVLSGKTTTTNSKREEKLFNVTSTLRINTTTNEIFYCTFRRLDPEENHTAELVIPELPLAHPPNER
T2 sequence (Q9NZQ7 18-239): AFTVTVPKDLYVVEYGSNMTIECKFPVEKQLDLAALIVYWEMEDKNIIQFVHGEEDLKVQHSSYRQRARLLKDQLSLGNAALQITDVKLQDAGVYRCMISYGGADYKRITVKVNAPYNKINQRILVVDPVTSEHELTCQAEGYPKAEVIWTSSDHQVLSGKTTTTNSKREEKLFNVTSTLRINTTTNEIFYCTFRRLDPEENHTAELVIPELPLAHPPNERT

Turning to durvalumab, the “Activation of Jurkat ECs in the ICB assay” value in test [1] (6 h co-culture, fold induction vs control) is on record as “increase the activation of Jurkat ECs”.

For `Cc1c(COc2cc(OCc3cccc(C#N)c3)c(CN3C[C@H](O)C[C@@H]3C(=O)O)cc2Cl)cccc1-c1ccc2c(c1)OCCO2` [BMS-1166, reference compound], on PD-1/PD-L1 complex, the “HTRF: Percentage of the Dissociated PD-1/PD-L1 Complex, 0.5 µM Ligand Conc.” value is 100% and the “HTRF: Percentage of the Dissociated PD-1/PD-L1 Complex, 5 µM Ligand Conc.” value stood at 100%. In addition, at PD-L1 protein, the “Protein precipitation during NMR titration” value was “not observed”.

In the case of “N1-(2-(2,6-dioxopiperidin-3-yl)-1,3-dioxoisoindolin-4-yl)-N5-((6-((2-methyl-[1,1′-biphenyl]-3-yl)methoxy)-3-((1-phenylethyl)amino)imidazo [1,2-a]pyridin-2-yl)methyl)glutaramide [compound 13]”, on PD-1/PD-L1 complex, the “HTRF: Percentage of the Dissociated PD-1/PD-L1 Complex, 0.5 µM Ligand Conc.” value was determined as 30.4% and the “HTRF: Percentage of the Dissociated PD-1/PD-L1 Complex, 5 µM Ligand Conc.” value was 31.1%. Also, in test [1], the “Promega Assay (active / not active)” value is “Not active”.

On to `COc1cc(-c2cccc(-c3ccc4c(c3)OCCO4)c2Cl)ccc1COC(=O)CCCC(=O)N1CCN(c2cccc3c2C(=O)N(C2CCC(=O)NC2=O)C3=O)CC1` (centres unmarked) [compound 11], for which, at PD-1/PD-L1 complex, the inhibition at 0.5 µM turned out to be 26.3% and the inhibition at 5 µM came to 40%. In addition, in test [1], the “Promega Assay (active / not active)” value is listed as “Not active”.

For `Cc1c(COc2ccc3nc(CNC(=O)CCCC(=O)Nc4cccc5c4C(=O)N(C4CCC(=O)NC4=O)C5=O)c(NCc4cccc(C#N)c4)n3c2)cccc1-c1ccc(F)cc1` (centres unmarked) [compound 12, N1-((3-((3-cyanobenzyl)amino)-6-((4′-fluoro-2-methyl-[1,1′-biphenyl]-3-yl)methoxy)imidazo [1,2-a]pyridin-2-yl)methyl)-N5-(2-(2,6-dioxopiperidin-3-yl)-1,3-dioxoisoindolin-4-yl)glutaramide], on PD-1/PD-L1 complex, the inhibition at 0.5 µM was 40.9% and the inhibition at 5 µM was found to be 76.3%. Also, the “Promega Assay (active / not active)” value in test [1] is “Not active”.

Take `Cc1c(COc2cc(OCc3cccc(C#N)c3)c(CN3C[C@H](O)C[C@@H]3C(=O)NCC3CCN(CC(=O)Nc4cccc5c4C(=O)N(C4CCC(=O)NC4=O)C5=O)CC3)cc2Cl)cccc1-c1ccc2c(c1)OCCO2` (stereo partly drawn) [compound 1, (2R,4R)-1-(5-chloro-2-((3-cyanobenzyl)oxy)-4-((3-(2,3-dihydrobenzo[b][1,4]dioxin-6-yl)-2-methylbenzyl)oxy)benzyl)-N-((1-(2-((2-(2,6-dioxopiperidin-3-yl)-1,3-dioxoisoindolin-4-yl)amino)-2-oxoethyl)piperidin-4-yl)methyl)-4-hydroxypyrrolidine-2-carboxamide]: on PD-1/PD-L1 complex, the inhibition at 0.5 µM amounted to 23.7% and the inhibition at 5 µM worked out at 68.3%. Further, in test [1], the “Promega Assay (active / not active)” value was “Not active”.

For `COc1nc(OCc2cccc(-c3ccccc3)c2C)ccc1C(NCCCNc1cccc2c1C(=O)N(C1CCC(=O)NC1=O)C2=O)c1nnnn1C(C)(C)C` (centres unmarked) [compound 7, 4-((3-(((1-(tert-butyl)-1H-tetrazol-5-yl)(2-methoxy-6-((2-methyl-[1,1′-biphenyl]-3-yl)methoxy)pyridin-3-yl)methyl)amino)propyl)amino)-2-(2,6-dioxopiperidin-3-yl)isoindoline-1,3-dione], at PD-1/PD-L1 complex, the inhibition at 0.5 µM was 0% and the inhibition at 5 µM was 35.2%. Also, in test [1], the “Promega Assay (active / not active)” value is “Not active”.

With `Cc1c(COc2cc(OCc3cccc(C#N)c3)c(CNCC3CCN(CC(=O)Nc4cccc5c4C(=O)N(C4CCC(=O)NC4=O)C5=O)CC3)cc2Cl)cccc1-c1ccc2c(c1)OCCO2` (centres unmarked) [compound 3, 2-(4-(((5-chloro-2-((3-cyanobenzyl)oxy)-4-((3-(2,3-dihydrobenzo[b][1,4]dioxin-6-yl)-2-methylbenzyl)oxy)benzyl)amino)methyl)piperidin-1-yl)-N-(2-(2,6-dioxopiperidin-3-yl)-1,3-dioxoisoindolin-4-yl)acetamide], on PD-1/PD-L1 complex, the inhibition at 0.5 µM stood at 77.8% and the inhibition at 5 µM turned out to be 97.1%. Besides, at PD-1/PD-L1 complex (six ligand concentrations, two dilution series), the IC50 was 60 ± 2 nM. The “Promega Assay (active / not active)” value in test [1] is “Not active”.

For `COc1cc(-c2cccc(-c3ccc4c(c3)OCCO4)c2Cl)ccc1COC(=O)CCC(=O)N1CCN(c2cccc3c2C(=O)N(C2CCC(=O)NC2=O)C3=O)CC1` (centres unmarked) [compound 10, (3′-(benzo-1,4-dioxan-6-yl)-2′-chloro-3-methoxy-[1,1′-biphenyl]-4-yl)methyl 4-(4-(2-(2,6-dioxopiperidin-3-yl)-1,3-dioxoisoindolin-4-yl)piperazin-1-yl)-4-oxobutanoate], on PD-1/PD-L1 complex, the inhibition at 0.5 µM was determined as 29.4% and the inhibition at 5 µM came to 60.6%. Also, the “Promega Assay (active / not active)” value in test [1] was “Not active”.

Regarding `Cc1c(COc2cc(OCc3cccc(C#N)c3)c(CN3C[C@H](O)C[C@@H]3C(=O)NCCCNc3cccc4c3C(=O)N(C3CCC(=O)NC3=O)C4=O)cc2Cl)cccc1-c1ccc2c(c1)OCCO2` (stereo partly drawn) [compound 2, (2R,4R)-1-(5-chloro-2-((3-cyanobenzyl)oxy)-4-((3-(2,3-dihydrobenzo[b][1,4]dioxin-6-yl)-2-methylbenzyl)oxy)benzyl)-N-(3-((2-(2,6-dioxopiperidin-3-yl)-1,3-dioxoisoindolin-4yl)amino)propyl)-4-hydroxypyrrolidine-2-carboxamide], on PD-1/PD-L1 complex, the inhibition at 0.5 µM was determined as 3.9% and the inhibition at 5 µM was determined as 71.7%. Further, the “Promega Assay (active / not active)” value in test [1] was “Not active”.
